Data as given in patent US10696693B2, “Fused imidazole derivatives as TGF-beta inhibitors” (Rigel Pharmaceuticals, Inc., priority 2014, dated 2020).
Like-named read-outs stand apart in the source and are kept apart here.

Columns and labels:
GDF8 = assay: AlphaScreen SureFire p-SMAD3 (Ser423/425) assay, GDF8-stimulated cells; format: cell-based; details: Mus musculus
Procedure, shortened: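 Lysate (5 μL) went into 384-well shallow plates with 5 μL of Reaction Buffer, Activation Buffer and AlphaScreen Acceptor bead mix. Plates were sealed, kept dark and shaken for 2 hours at room temperature. Donor beads in dilution buffer (2 μL) were added for another 1½ hours, and p-SMAD3 signal was read on a Synergy-4 or Enspire reader.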

TGF-β = assay: AlphaScreen SureFire p-SMAD3 (Ser423/425) assay, TGF-β-stimulated cells; format: cell-based; details: Mus musculus
Procedure, shortened: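 The p-SMAD-3 (Ser423/425) SureFire assay measured phosphorylation of endogenous SMAD-3 in cell lysates. Cells were plated overnight in collagen-coated plates, exposed to three-fold serially diluted compounds for about 10 minutes, then stimulated with TGFβ. Lysates (5 μL) received acceptor bead mix for 2 hours, then donor beads for 1½ hours before AlphaScreen reading.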

[1] = MPC-11, p-SMAD3 (Ser423/425) AlphaScreen in cell lysate, MPC11, GDF8 stimulation, read-out: GDF8: inhibition of GDF8 signaling, GDF pSMAD (MPC11)
[2] = p-SMAD3 (Ser423/425) AlphaScreen in cell lysate, MPC-11, TGF-β stimulation, read-out: TGF-β: inhibition of TGF-β signaling, TGF-β pSMAD (MPC-11)
[3] = MPC-11, read-out: GDF8: inhibition of GDF8 signaling, GDF pSMAD (MPC11), p-SMAD3 (Ser423/425) AlphaScreen in cell lysate, GDF8 stimulation
[4] = MPC-11, read-out: TGF-β: inhibition of TGF-β signaling, TGF-β pSMAD (MPC-11), p-SMAD3 (Ser423/425) AlphaScreen in cell lysate, TGF-β stimulation

Row | SMILES | IC50 (GDF8; [1]) [nM] | IC50 (TGF-β; [2]) [nM] | IC50 (GDF8; [3]) [nM] | IC50 (TGF-β; [4]) [nM]
1 | Cc1c(-c2nc3n(c2-c2ccc4ncccc4c2)CCC3)ccc(F)c1F [Compound 263, 6-(2-(3,4-difluoro-2-methylphenyl)-6,7-dihydro-5H-pyrrolo[1,2-a]imidzaol-3-yl)quinoline] | 100 to 1000 | > 1000 | – | –
2 | Fc1cc(-c2nc3n(c2-c2ccc4nccnc4c2)CCC3)cc(F)c1F [Compound 227, 6-(2-(3,4,5-trifluorophenyl)-6,7-dihydro-5H-pyrrolo[1,2-a]imidazol-3-yl)quinoxaline] | 100 to 1000 | > 1000 | – | –
3 | Fc1ccc(-c2nc3n(c2-c2ccc4ncccc4c2)CC2(CCCC2)C3)cc1 [Compound 327, 2′-(4-fluorophenyl)-3′-(quinolin-6-yl)-5′H,7′H-spiro[cyclopentane-1,6′-pyrrolo[1,2-a]imidazole]] | – | – | > 1000 | > 1000
4 | Cc1cc(-c2nc3n(c2-c2ccc4ncsc4c2)CCC3)c(C)cc1F [Compound 309, 6-(2-(4-fluoro-2,5-dimethylphenyl)-6,7-dihydro-5H-pyrrolo[1,2-a]imidazol-3-yl)benzo[d]thiazole] | – | – | 100 to 1000 | 100 to 1000
5 | Cc1c(F)ccc(-c2nc3n(c2-c2ccc4nccnc4c2)CCC3)c1C [Compound 330, 6-(2-(4-fluoro-2,3-dimethylphenyl)-6,7-dihydro-5H-pyrrolo[1,2-a]imidazol-3-yl)quinoxaline] | – | – | > 1000 | > 1000
6 | Cc1c(F)ccc(-c2nc3n(c2-c2ccc4ncccc4c2)CCC3)c1F [Compound 283, 6-(2-(2,4-difluoro-3-methylphenyl)-6,7-dihydro-5H-pyrrolo[1,2-a]imidazol-3-yl)quinoline] | 100 to 1000 | > 1000 | – | –
7 | Fc1cc(F)c(-c2nc3n(c2-c2ccc4[nH]ncc4c2)CCC3)cc1F [Compound 220, 5-(2-(2,4,5-trifluorophenyl)-6,7-dihydro-5H-pyrrolo[1,2-a]imidazol-3-yl)-1H-indazole] | 50 to 100 | 100 to 1000 | – | –
8 | O=C(O)C1CCC2(CC1)Cc1nc(-c3ccc(F)cc3)c(-c3ccc4nccnc4c3)n1C2 (stereo not drawn) [Compound 334, 2′-(4-fluorophenyl)-3′-(quinoxalin-6-yl)-5′H,7′H-spiro[cyclohexane-1,6′-pyrrolo[1,2-a]imidazole]-4-carboxylic acid] | – | – | > 1000 | > 1000
9 | Cc1c(F)ccc(-c2nc3n(c2-c2ccc4ncccc4c2)CCC3)c1Cl [Compound 315, 6-(2-(2-chloro-4-fluoro-3-methylphenyl)-6,7-dihydro-5H-pyrrolo[1,2-a]imidazol-3-yl)quinoline] | – | – | > 1000 | > 1000
10 | Cc1ccc(Cl)cc1-c1nc2n(c1-c1ccc3ncsc3c1)CCC2 [Compound 350, 6-(2-(5-chloro-2-methylphenyl)-6,7-dihydro-5H-pyrrolo[1,2-a]imidazol-3-yl)benzo[d]thiazole] | – | – | 50 to 100 | 100 to 1000
11 | Cc1cccc(-c2nc3n(c2-c2ccc4nccn4c2)CCC3)c1 [Compound 1, 6-(2-(m-tolyl)-6,7-dihydro-5H-pyrrolo[1,2-a]imidazol-3-yl)imidazo[1,2-c]pyridine] | 50 to 100 | 100 to 1000 | – | –
12 | COc1c(C)cc(-c2nc3n(c2-c2ccc4nccnc4c2)CCC3)cc1C [Compound 258, 6-(2-(4-methoxy-3,5-dimethylphenyl)-6,7-dihydro-5H-pyrrolo[1,2-a]imidaol-3-yl)quinoxaline] | > 1000 | > 1000 | – | –
13 | Cc1cc(-c2nc3n(c2-c2ccc4ncnn4c2)CCC3)cc(Cl)c1F [Compound 40, 6-(2-(3-chloro-4-fluoro-5-methylphenyl)-6,7-dihydro-5H-pyrrolo[1,2-c]imidazol-3-yl)-[1,2,4]triazolo[1,5-c]pyridine] | > 1000 | > 1000 | – | –
14 | Cc1c(F)ccc(-c2nc3n(c2-c2ccc4nccn4c2)CCC3)c1Cl [Compound 67, 6-(2-(2-chloro-4-fluoro-3-methylphenyl)-6,7-dihydro-5H-pyrrolo[1,2-a]imidazol-3-yl)imidazo[1,2-a]pyridine] | 100 to 1000 | > 1000 | – | –
15 | Fc1ccc(-c2nc3n(c2-c2ccc4ncsc4c2)CCC3)cc1F [Compound 207, 6-(2-(3,4-difluorophenyl)-6,7-dihydro-5H-pyrrolo[1,2-a]imidazol-3-yl)benzo[d]thiazole] | 100 to 1000 | 100 to 1000 | – | –
16 | Cc1cc(-c2nc3n(c2-c2ccc4[nH]ncc4c2)CCC3)c(Cl)cc1F [Compound 316, 5-(2-(2-chloro-4-fluoro-5-methylphenyl)-6,7-dihydro-5H-pyrrolo[1,2-a]imidazol-3-yl)-1H-indazole] | – | – | 100 to 1000 | 100 to 1000
17 | FC(F)(F)c1cccc(-c2nc3n(c2-c2ccc4nccn4c2)CCC3)c1 [Compound 4] | 100 to 1000 | 100 to 1000 | – | –
18 | Fc1ccc(-c2nc3n(c2-c2ccc4[nH]ncc4c2)CCC3)c(F)c1F [Compound 225, 5-(2-(2,3,4-trifluorophenyl)-6,7-dihydro-5H-pyrrolo[1,2-a]imidazol-3-yl)-1H-indazole] | – | – | 100 to 1000 | 100 to 1000

Second part, led by results:

Row | IC50 (GDF8; [1]) [nM] | IC50 (TGF-β; [2]) [nM] | SMILES | IC50 (GDF8; [3]) [nM] | IC50 (TGF-β; [4]) [nM]
19 | < 50 | < 50 | Fc1ccc(Cl)cc1-c1nc2n(c1-c1ccc3ncnn3c1)CCC2 [Compound 82, 6-(2-(5-chloro-2-fluoro)-6,7-dihydro-5H-pyrrolo[1,2-a]imidazol-3-yl)-[1,2,4]triazolo[1,5-a]pyridine] | – | –
20 | < 50 | < 50 | Fc1cc(F)c(-c2nc3n(c2-c2ccc4nccn4c2)CCN3)cc1F [Compound 108, 6-(6-(2,4,5-trifluorophenyl)-2,3-dihydro-1H-imidazo[1,2-a]imidazol-5-yl)imidazo[1,2-a]pyridine] | – | –
21 | 50 to 100 | 100 to 1000 | Fc1ccc(-c2nc3n(c2-c2ccc4ncsc4c2)CCC3)cc1Cl [Compound 265, 6-(2-(3-chloro-4-fluoropheny)-6,7-dihydro-5H-pyrrolo[1,2-a]imidazol-3-yl)benzo[d]thiazole] | – | –
22 | < 50 | < 50 | Fc1ccc(Cl)cc1-c1nc2n(c1-c1ccc3nccn3c1)CCC2 [Compound 83] | – | –
23 | < 50 | 50 to 100 | Cc1cccc(-c2nc3occn3c2-c2ccc3ncccc3c2)c1 [Compound 144, 5-(quinolin-6-yl)-6-(m-tolyl)imidazo[2,1-b]oxazole] | – | –
24 | < 50 | < 50 | c1ccc(C2=C(c3ccc4[nH]ncc4c3)C3CCCC3=N2)nc1 (stereo not drawn) [Compound 365, 5-(2-(pyridin-2-yl)-3a,4,5,6-tetrahydrocyclopenta[b]pyrrol-3-yl)-1H-indazole] | – | –
25 | < 50 | 50 to 100 | Cc1cc(-c2nc3n(c2-c2ccc4ncsc4c2)CCC3)ccc1F [Compound 173, 6-(2-(4-fluoro-3-methylphenyl)-6,7-dihydro-5H-pyrrolo[1,2-a]imidazol-3-yl)benzo[d]thiazole] | – | –
26 | < 50 | 50 to 100 | Nc1ncnc2ccc(-c3c(-c4cc(F)c(F)cc4F)nc4n3CCC4)cc12 [Compound 345, 6-(2-(2,4,5-trifluorophenyl)-6,7-dihydro-5H-pyrrolo[1,2-a]imidazol-3-yl)quinazolin-4-amine] | – | –
27 | < 50 | 50 to 100 | Fc1cc(F)c(-c2nc3n(c2-c2ccc4ncsc4c2)CCC3)cc1F [Compound 218, 6-(2-(2,4,5-trifluorophenyl)-6,7-dihydro-5H-pyrrolo[1,2-a]imidazol-3-yl)benzo[d]thiazole] | – | –
